{
  "source": "paper PMC4786259",
  "about": "(PLoS ONE, 2016)",
  "tested_on": "WT and dopamine transporter knockout (DAT-KO) mice",
  "test": "Prepulse inhibition in WT and DAT-KO mice",
  "conditions": "2 mg/kg clozapine i.p.",
  "data": [
    {"compound": "CN1CCN(C2=Nc3cc(Cl)ccc3Nc3ccccc32)CC1", "note": "[clozapine]", "values": [
      {"measurement": "PPI in DAT-KO mice", "result": "restored"},
      {"measurement": "PPI in WT mice", "result": "not affected"}
    ]}
  ]
}
